PMC8846325, “A Photoactivable Natural Product with Broad Antiviral Activity against Enveloped Viruses, Including Highly Pathogenic Coronaviruses” (Antimicrobial Agents and Chemotherapy, 2022)

How the values were obtained:
Format in all cases: cell-based
[1] = system: HCoV-229E; assay: Quencher assay (singlet oxygen quenchers); conditions: quencher 10 mM, Pba 0.5 or 1 μM
[2] = system: HCoV-229E; assay: HCoV-229E-Luc infection inhibition luciferase assay; conditions: for light dependence of antiviral effect: HCoV-229E, light versus dark; for IC50: against HCoV-229E, normal white light exposure, read-out: IC50; for antiviral activity against HCoV-229E-Luc, screening of related compounds: Huh-7 cells, 1, 5, 10 µM, light exposure
[3] = system: Huh-7 cells; assay: MTS cell toxicity assay, Huh-7 cells; conditions: Huh-7 cells, 24 h, light exposure
Protocol: A total of 6 × 10^4 Huh-7, Vero-E6, and Vero-81 cells were seeded in 96-well plates and incubated for 16 h at 37°C in a 5% CO2 incubator. The cells were then treated with increasing concentrations of the compound of interest. One hour after inoculation, cells were taken out of the incubator to be exposed to the white light of a biosafety cabinet (BSC) for 10 min, after which cells were further incubated in the dark at 37°C and 5% CO2 for 23 h. The BSC’s light source lamp consists of one fluorescent tube of 36 W, 3,350 lumen, white light. An MTS [3-(4,5-dimethylthiazol-2-yl)-5-(3-carboxymethoxyphenyl)-2-(4-sulfophenyl)-2H-tetrazolium]-based viability assay (Cell Titer 96 aqueous nonradioactive cell proliferation assay; Promega) was performed as recommended by the manufacturer. The absorbance of formazan at 490 nm was detected using a plate reader (ELX 808 Bio-Tek Instruments Inc.). Each measure was performed in triplicate, and each experiment was repeated at least 3 times.
6×104 Huh-7, Vero-E6 and Vero-81 cells were seeded in 96-well plates and incubated for 16 h at 37 °C 5% CO2 incubator. The cells were then treated with increasing concentrations of the compound of interest. One hour after inoculation, cells were either left in the incubator (dark condition) or taken out to be exposed to the white light of the biosafety cabinet (BSC) for 10 min (light condition), after which cells were further incubated in the dark at 37 °C 5% CO2 for 23 h. BSC’s light source lamp consists of one fluorescent tube of 36W, 3350 lumen white light. An MTS [3-(4,5-dimethylthiazol-2-yl)-5-(3-carboxymethoxyphenyl)-2-(4-sulfophenyl)- 2H-tetrazolium]-based viability assay (Cell Titer 96 Aqueous non-radioactive cell proliferation assay, Promega) was performed as recommended by the manufacturer. The absorbance of formazan at 490 nm was detected using a plate reader (ELX 808 Bio-Tek […]
Instruments Inc). […]

[4] = system: SARS-CoV-2

Cc1c(C)c2c(c(C)c1O)CCC(C)(C(=O)O)O2 (stereo not drawn) [Trolox]
effect of quencher on antiviral action of Pba [1]: able to reduce the action of Pba

C=CC1=C(C)c2cc3[n-]c(cc4[n-]c(cc5nc(cc1n2)C(C)=C5C=C)c(C)c4CCC(=O)O)c(CCC(=O)O)c3C.[Zn+2] [Zn protoporphyrin IX, Zn-protoporphyrin IX]
light dependence of antiviral effect [2]: light-dependent antiviral effect | IC50 ([2]; Huh-7 cells): 0.79 µM | CC50 [3]: 16.6 µM

CCN(CC)CCCC(C)Nc1ccnc2cc(Cl)ccc12 (stereo not drawn) [chloroquine, reference compound]
infectivity relative to normal levels, compound added more than 2 h after inoculation [4]: around 60%

c1ccc2c(c1)-c1nc-2nc2[nH]c(nc3nc(nc4[nH]c(n1)c1ccccc41)-c1ccccc1-3)c1ccccc21 [phthalocyanine]
antiviral activity against HCoV-229E-Luc, screening of related compounds [2]: not active at the tested concentrations

Oc1cccc(-c2c3nc(c(-c4cccc(O)c4)c4ccc([nH]4)c(-c4cccc(O)c4)c4nc(c(-c5cccc(O)c5)c5ccc2[nH]5)CC4)C=C3)c1 [temoporfin]
antiviral activity against HCoV-229E-Luc, screening of related compounds [2]: moderate antiviral activity

HPPH
light dependence of antiviral effect [2]: light-dependent antiviral effect | IC50 ([2]; Huh-7 cells): 1.14 µM | CC50 [3]: 8.13 µM

N-methyl protoporphyrin IX
light dependence of antiviral effect [2]: light-dependent antiviral effect | antiviral activity under dark conditions ([2]; Huh-7 cells, dark): showed antiviral activity under dark conditions | IC50 ([2]; Huh-7 cells): 1.21 µM | CC50 [3]: > 80 µM

hemin chloride
antiviral activity against HCoV-229E-Luc, screening of related compounds [2]: moderate antiviral activity
